“Also recorded” adds a separate entry of the source.
What was measured:
neurospheres (NSPCs) = experiment: Neurosphere proliferation, marker proteins and cell cycle under FK866; format: cell-based, mouse
Experimental: Protein extracts (15-50 μg) from mouse hippocampi or neurospheres were prepared as previously described (Yoshino et al, 2011).
Total RNA was extracted from the hippocampus using an RNeasy kit (Qiagen) and reverse-transcribed into cDNA with a High Capacity cDNA Reverse Transcription kit (Applied Biosystems). Quantitative real-time RT-PCR was conducted with the TaqMan Fast Universal PCR Master mix and appropriate TaqMan primers for each gene with the GeneAmp 7500 fast sequence detection system (Applied Biosystems). Relative expression levels were calculated for each gene by normalizing to Gapdh levels and then to a control.
FK866 (Hasmann & Schemainda, 2003) (Sigma F8557), EX527 (Peck et al, 2010) (Cayman Chemical 10009798), and AGK2 (Outeiro et al, 2007) (Sigma A8231) were dissolved in DMSO and used to inhibit Nampt, Sirt1, and Sirt2 respectively.
Neurosphere cultures and culture media were prepared as described by Dasgupta & Gutmann, 2005 and Lu & Ramanan, 2012 with the following minor modifications. Briefly, postnatal hippocampi were dissected in HibernateA (Invitrogen, A12475-01) and trypsinized at 37° C. for 7 m. Cells were mechanically dissociated by pipetting and pelleted by centrifugation (1700 rpm, 7 min). Dissociation medium (0.1% sodium bicarbonate, 15 mM HEPES, 0.5% glucose in HBSS) was used to wash the cells before they were resuspended in growth medium. Growth medium consisted of DMEM:F12 (1:1, Invitrogen 11966-025 and 21700-075, respectively), B27 (Invitrogen, 17504-044), N2 (Invitrogen, 17502-048), Pen/Strep (Invitrogen), epidermal growth factor (EGF, 20 ng/ml, Sigma, E4127), fibroblast growth factor (FGF, 10 ng/mL, R&D Systems, 233-fb), and heparin (Sigma). Cultures were maintained at 37° C. with 5% CO2, and passaged twice before use in experiments. Three to nine independent samples, each in 1 to 3 replicates, from at least two different litters, were used in all experiments. Neurospheres were cultured in the physiological glucose level of 5 mM (Dienel & Cruz, 2006), which has been previously shown to have no negative consequences on NSPC proliferation, differentiation, or death (Fu et al, 2006; Gao & Gao, 2007).
Neurospheres derived from Nampt^flox/flox mice were dissociated by trypsin digestion and seeded at similar cell densities in 24-well plates with fresh growth medium. Every 24 hours, neurospheres from triplicate wells were collected, dissociated, and counted on a hemocytometer using 0.2% trypan blue exclusion to distinguish viable cells. For analysis of neurosphere diameter, the largest neurosphere in each well was imaged (20× objective) and the diameter was calculated using ImageJ. For secondary neurosphere analysis, the total number of neurospheres in each well was counted at 7 days post-plating.
The inventors investigated how inhibition of Nampt affects neurosphere proliferation. […] To distinguish whether this decrease in cell number was due to an inhibition of proliferation or enhancement of death, the inventors analyzed the protein levels of markers of proliferation, apoptosis, and autophagy. […] Parametric analysis of gene enrichment (PAGE) was conducted based on microarray analyses. See the Methods section. […] Data are presented as mean±s.e.m. *P<0.05. **P<0.01. ***P<0.001.

661W cone cells = experiment: 661W cone cells: oxygen consumption rate measurement assay; format: cell-based, mouse
Experimental: There was an abundance of degenerative vacuoles with ingested organelles including mitochondria in rod-CKO mice with no such structures identified in littermate wild type controls. At 3 weeks of age, subtle changes in inner segments could be identified in rod-CKO mice although they were not as dramatic as those seen by 4 weeks (FIG. 35). […] The inventors treated 661W cone cells with NAMPT inhibitor FK866 (200 nM). In the oxygen consumption rate measurement assay, multiple aspects of mitochondrial function were analyzed.

661W cone PR cell line = experiment: 661W cone PR cell line: cell death and intracellular NAD under FK866 with or without NMN; format: cell-based, mouse
Description: The present inventors assessed the physiological importance of NAMPT-mediated NAD biosynthesis in the retina by generating rod cell- and cone cell-specific NAMPT knockout mice. […] Both a and b wave ERG responses were completely depressed as characterized by a total lack of response to all stimuli. […] NMN administration is an effective intervention to treat/prevent retinal degeneration.
The inventors used a 661W cone PR cell line and treated the cells with the specific pharmacological NAMPT inhibitor FK866 (200 nM). […] Cell death progresses dramatically over the next 20 hours.

Nampt = biological target: T1, Nampt (Mus musculus, UniProt Q99KQ4); experiment: NAD+ levels in neurospheres treated with FK866 with or without NMN; format: cell-based
T1 construct: endogenous in cells; host or cells: primary neurospheres (NSPCs) from hippocampi of postnatal mice
Experimental: NAD+ levels were determined using an HPLC system (Shimadzu) with a Supelco LC-18-T column (15 cm×4.6 cm; Sigma), as described previously (Yoshino et al, 2011).
Neurosphere cultures and culture media were prepared as described by Dasgupta & Gutmann, 2005 and Lu & Ramanan, 2012 with the following minor modifications. Briefly, postnatal hippocampi were dissected in HibernateA (Invitrogen, A12475-01) and trypsinized at 37° C. for 7 m. Cells were mechanically dissociated by pipetting and pelleted by centrifugation (1700 rpm, 7 min). Dissociation medium (0.1% sodium bicarbonate, 15 mM HEPES, 0.5% glucose in HBSS) was used to wash the cells before they were resuspended in growth medium. Growth medium consisted of DMEM:F12 (1:1, Invitrogen 11966-025 and 21700-075, respectively), B27 (Invitrogen, 17504-044), N2 (Invitrogen, 17502-048), Pen/Strep (Invitrogen), epidermal growth factor (EGF, 20 ng/ml, Sigma, E4127), fibroblast growth factor (FGF, 10 ng/mL, R&D Systems, 233-fb), and heparin (Sigma). Cultures were maintained at 37° C. with 5% CO2, and passaged twice before use in experiments. […]

[1] = Electroretinography (ERG) of aged mice; format: in vivo, mouse
Experimental: A 12 month-long NMN administration study using wild-type mice under a regular chow-fed condition was conducted. NMN was administered through drinking water, and two doses of NMN, 100 and 300 mg/kg body weight/day, were tested. […] To assess beneficial and possible adverse effects of NMN, a variety of physiological parameters were periodically monitored, including body weight, body temperature, food and water intake, fed and fasted blood glucose levels, fed and fasted plasma lipid panels, and glucose and insulin tolerance, in NMN-administered and control mice. Blood chemistry, blood cell counts, urine strip test, and other physiological tests including physical activity test were also checked.
In the long-term NMN administration study (See Methods; Administration of NMN through Drinking Water and Determination of NMN Stability and Toxicity), retinal function was evaluated by fundus biomicroscopy and electroretinography (ERG). FIG. 11 illustrates fundus biomicroscopy images from control and NMN-administered mice. For each group, five mice were examined, and two representative images are shown.
FIG. 12A-C illustrates electroretinograms from control and NMN-administered mice. Amplitudes of scotopic a and b (FIG. 12A, FIG. 12B) and photopic b (FIG. 12C) waves over each stimulus range are shown. […] The data were analyzed with the two-way repeated ANOVA. […]

[2] = FK866 10 nM, 48 hours, immunoblot

T1 sequence (Q99KQ4 whole entry): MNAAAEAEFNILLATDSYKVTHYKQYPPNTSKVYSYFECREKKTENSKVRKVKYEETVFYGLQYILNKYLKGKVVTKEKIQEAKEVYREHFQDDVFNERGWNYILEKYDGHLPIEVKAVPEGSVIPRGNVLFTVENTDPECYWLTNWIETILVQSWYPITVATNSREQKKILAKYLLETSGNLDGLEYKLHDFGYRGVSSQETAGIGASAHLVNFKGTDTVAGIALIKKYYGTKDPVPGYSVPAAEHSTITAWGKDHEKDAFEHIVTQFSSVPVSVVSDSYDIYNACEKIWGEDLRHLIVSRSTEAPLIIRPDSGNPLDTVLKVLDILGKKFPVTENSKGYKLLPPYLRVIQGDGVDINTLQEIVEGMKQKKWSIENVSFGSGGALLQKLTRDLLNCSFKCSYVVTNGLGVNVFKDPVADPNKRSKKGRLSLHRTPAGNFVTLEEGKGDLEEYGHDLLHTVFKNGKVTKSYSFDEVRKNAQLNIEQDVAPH

Compound | cyclins E and A and E2F1 mRNA (qRT-PCR) (neurospheres (NSPCs); FK866 10 nM, 48 hours) | levels of activated caspase 3 (neurospheres (NSPCs); FK866 10 nM, 48 hours) | levels of autophagy marker glycosylated LC3B (neurospheres (NSPCs); FK866 10 nM, 48 hours) | reduction of NSPC number (neurospheres (NSPCs); FK866 10 nM, 48 hours) | decrease of Ki67 protein expression (neurospheres (NSPCs); [2]) | decrease of PCNA protein expression (neurospheres (NSPCs); [2]) | proportion of NSPCs in G0/G1 (FACS) (neurospheres (NSPCs); FK866 treatment) | proportion of NSPCs in S phase (FACS) (neurospheres (NSPCs); FK866 treatment) | maximal respiration (661W cone cells; FK866 200 nM) | intracellular NAD levels (661W cone PR cell line; FK866 200 nM) | cell death of 661W cells (661W cone PR cell line; FK866 200 nM, after 4 hours of treatment) | NAD+ levels in neurospheres (Nampt; FK866 10 nM, 48 hours) | scotopic a wave amplitudes ([1]; at 0 and 5 db (300 mg/kg), 5 db (100 mg/kg), aged mice) | photopic b wave ([1]; entire range of stimulus, 100 and 300 mg/kg groups) | effects of FK866 on mitochondrial function (661W cone cells; NMN treatment with FK866) | NAD levels under FK866 (661W cone PR cell line; NMN 100 μM with FK866) | rescue from FK866-mediated cell death (661W cone PR cell line; NMN 100 μM with FK866) | rescue of FK866-induced decrease of NAD+ levels (Nampt; concurrent NMN 100 μM with FK866 10 nM)
O=C(/C=C/c1cccnc1)NCCCCC1CCN(C(=O)c2ccccc2)CC1 [FK866] | the primary cell cycle factors affected | only slightly increased | unchanged | 61% | 87% | 43% | increased the proportion of NSPCs in G0/G1 | decreased the proportion in S phase | significantly reduced | decrease in intracellular NAD levels | significant cell death; also recorded: apoptotic cell death | 4 % of controls | – | – | – | – | – | –
NC(=O)c1ccc[n+]([C@@H]2O[C@H](COP(=O)([O-])O)[C@@H](O)[C@H]2O)c1 [NMN, nicotinamide mononucleotide] | – | – | – | – | – | – | – | – | – | – | – | – | significantly higher amplitudes | trend of improvement | completely reverse | restore NAD to normal levels | completely rescue; also recorded: successfully rescued | completely rescued

Reference: patent publication US11793824B2, “Administration of nicotinamide mononucleotide in the treatment of disease” (Washington University, priority 2013, dated 2023)
